For the assay, the target named is T1, purified human Factor XIa (Homo sapiens, UniProt P03951).
T1 construct: purchased Haematologic Technologies
Put plainly: Factor XIa assay (chromogenic substrate S-2366 hydrolysis, Ki). The format is biochemical. Here is the method:
The effectiveness of compounds of the present invention as inhibitors of the coagulation factors XIa, VIIa, IXa, Xa, XIIa, plasma kallikrein or thrombin, can be determined using a relevant purified serine protease, respectively, and an appropriate synthetic substrate. The rate of hydrolysis of the chromogenic or fluorogenic substrate by the relevant serine protease was measured both in the absence and presence of compounds of the present invention. […] A decrease in the rate of absorbance or fluorescence change in the presence of inhibitor is indicative of enzyme inhibition. Such methods are known to one skilled in the art. The results of this assay are expressed as the inhibitory constant, Ki.
Values of Ki were determined by allowing the protease to react with the substrate in the presence of the inhibitor. Reactions were allowed to go for periods of 20-180 minutes (depending on the protease) and the velocities (rate of absorbance or fluorescence change versus time) were measured. The following relationships were used to calculate Ki values:
vs/vo=A+((B−A)/1+((IC50/(I)^n))) and […]

Setting [1] is: purified human Factor XIa 75-200 pM, substrate S-2366, 50 mM HEPES pH 7.4, read-out: Factor XIa Ki.

Where a name gives a salt, the structure may show the parent alone. Read-outs that look alike come from different tables or passages of the source.

T1 sequence (P03951 19-387): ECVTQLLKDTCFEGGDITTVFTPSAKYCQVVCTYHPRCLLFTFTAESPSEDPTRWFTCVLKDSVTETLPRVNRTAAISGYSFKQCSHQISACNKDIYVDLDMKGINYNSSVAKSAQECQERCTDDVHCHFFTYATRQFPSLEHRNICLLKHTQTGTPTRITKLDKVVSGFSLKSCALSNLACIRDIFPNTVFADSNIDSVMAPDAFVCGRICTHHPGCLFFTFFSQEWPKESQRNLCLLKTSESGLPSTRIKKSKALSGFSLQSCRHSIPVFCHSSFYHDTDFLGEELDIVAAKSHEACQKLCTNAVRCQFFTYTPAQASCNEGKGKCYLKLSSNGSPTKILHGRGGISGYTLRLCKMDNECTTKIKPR
T1 sequence (P03951 388-625): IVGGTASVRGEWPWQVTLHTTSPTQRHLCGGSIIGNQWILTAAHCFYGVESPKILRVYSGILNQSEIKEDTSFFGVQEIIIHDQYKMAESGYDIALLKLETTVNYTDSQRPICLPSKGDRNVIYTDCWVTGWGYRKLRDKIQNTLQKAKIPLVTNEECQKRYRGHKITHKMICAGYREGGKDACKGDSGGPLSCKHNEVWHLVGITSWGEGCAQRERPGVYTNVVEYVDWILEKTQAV

For orientation: Ki means a measure of affinity in units of concentration, obtained from inhibition or displacement. Consider `Nc1n[nH]c2cc(NC(=O)[C@H](Cc3ccccc3)NC(=O)C[S+]([O-])c3cc(Cl)ccc3-n3cnnn3)ccc12` (single isomer, unassigned; isomer b) [Example 133], for which the inhibitory constant (Ki) under setting [1] amounted to 672 nM.

Turning to `CCOC(=O)Cc1ccc(NC(=O)[C@H](Cc2ccccc2)NC(=O)CCc2cc(Cl)ccc2-n2cnnn2)cc1` [Example 1, (S)-ethyl 2-(4-(2-(3-(5-chloro-2-(1H-tetrazol-1-yl)phenyl)propan-amideo)-3-phenylpropanamido)phenyl)acetate], affinity was put at a Ki of 140 nM. On to `COC(=O)Nc1ccc(NC(=O)[C@H](Cc2ccccc2)NC(=O)/C=C/c2cc(Cl)ccc2-n2cnnn2)c(Cl)c1` [Example 14, (3-chloro-4-{(S)-2-[(E)-3-(5-chloro-2-tetrazol-1-yl-phenyl)-acryloylamino]-3-phenyl-propionylamino}-phenyl)-carbamic acid methyl ester], for which the Ki under setting [1] is 2960 nM. `O=C(/C=C/c1c(F)ccc(Cl)c1F)N[C@@H](Cc1ccccc1)C(=O)Nc1ccc(C(=O)O)cc1` [Example 15, 4-{(S)-2-[(E)-3-(3-chloro-2,6-difluoro-phenyl)-acryloylamino]-3-phenyl-propionylamino}-benzoic acid] displayed a Ki of 291 nM. As for `O=C(/C=C/c1cc(Cl)ccc1-n1cnnn1)N[C@@H](Cc1ccccc1)C(=O)Nc1ncc(C(=O)O)s1` [Example 21, 2-{(S)-2-[(E)-3-(5-chloro-2-tetrazol-1-yl-phenyl)-acryloylamino]-3-phenyl-propionylamino}-thiazole-5-carboxylic acid], the Ki under setting [1] was found to be 105 nM. Take `O=C(/C=C/c1cc(Cl)ccc1-n1cnnn1)N[C@@H](Cc1ccccc1)C(=O)Nc1ccc2[nH]ncc2c1` [Example 30, (E)-3-(5-chloro-2-tetrazol-1-yl-phenyl)-N—[(S)-1-(1H-indazol-5-ylcarbamoyl)-2-phenyl-ethyl]-acrylamide]: the inhibitory constant (Ki) under setting [1] turned out to be 12.7 nM. As to `O=C(/C=C/c1cc(Cl)ccc1-n1cnnn1)N[C@@H](Cc1ccccc1)C(=O)Nc1ccc2c(=O)[nH][nH]c(=O)c2c1` [Example 36, (E)-3-(5-chloro-2-tetrazol-1-yl-phenyl)-N—[(S)-1-(1,4-dioxo-1,2,3,4-tetrahydro-phthalazin-6-ylcarbamoyl)-2-phenyl-ethyl]-acrylamide], under setting [1], the Ki came out at 33.9 nM.

Regarding `O=C(/C=C/c1cc(Cl)ccc1-n1cnnn1)N[C@@H](Cc1cccc(F)c1)C(=O)Nc1ccc(-c2nnn[nH]2)cc1` [Example 43, (E)-3-(5-chloro-2-tetrazol-1-yl-phenyl)-N-{(S)-2-(3-fluoro-phenyl)-1-[4-(1H-tetrazol-5-yl)-phenylcarbamoyl]-ethyl}-acrylamide], the Ki under setting [1] turned out to be 1.61 nM. Same read-out and setting: for `CN1CCN(C(=O)C[C@H](NC(=O)/C=C/c2cc(Cl)ccc2-n2cnnn2)C(=O)Nc2ccc(C(=O)O)cc2)CC1` [Example 45, 4-[(S)-2-[(E)-3-(5-chloro-2-tetrazol-1-yl-phenyl)-acryloylamino]-4-(4-methyl-piperazin-1-yl)-4-oxo-butyrylamino]-benzoic acid] the value was 33.4 nM; for `CC[C@H](NC(=O)/C=C/c1cc(Cl)ccc1-n1cnnn1)C(=O)Nc1ccc(NC(=O)OC)cc1` [Example 50, (4-{(S)-2-[(E)-3-(5-chloro-2-tetrazol-1-yl-phenyl)-acryloylamino]-butyrylamino}-phenyl)-carbamic acid methyl ester], 1120 nM. Regarding `C[C@H](NC(=O)/C=C/c1cc(Cl)ccc1-n1cnnn1)C(=O)Nc1ccc(CC(=O)O)cc1` [Example 51, (4-{(S)-2-[(E)-3-(5-chloro-2-tetrazol-1-yl-phenyl)-acryloylamino]-propionylamino}-phenyl)-acetic acid], affinity was put at a Ki of 317 nM. In the case of `O=C(/C=C/c1cc(Cl)ccc1-n1cnnn1)N[C@@H](Cc1ccccc1)C(=O)Nc1ccc2c(c1)CCNC2` [Example 53, (E)-3-(5-chloro-2-tetrazol-1-yl-phenyl)-N—[(S)-2-phenyl-1-(1,2,3,4-tetrahydro-isoquinolin-6-ylcarbamoyl)-ethyl]-acrylamide], the Ki under setting [1] is 244 nM. Take `O=C(/C=C/c1c(F)ccc(Cl)c1F)N[C@@H](Cc1ccccc1)C(=O)Nc1ccc2cn[nH]c2c1` [Example 57, (E)-3-(3-chloro-2,6-difluoro-phenyl)-N—[(S)-1-(1H-indazol-6-ylcarbamoyl)-2-phenyl-ethyl]-acrylamide]: the Ki came to 3570 nM. For the molecule `NCc1ccc(Cl)cc1/C=C/C(=O)N[C@@H](Cc1ccccc1)C(=O)Nc1ccc(C(=O)O)cc1` [Example 83, (S,E)-4-(2-(3-(2-(aminomethyl)-5-chlorophenyl)acrylamido)-3-phenylpropanamido)benzoic acid, TFA salt], the Ki was 63.9 nM. Same read-out and setting: the figure for `COC(=O)c1ccc2nc(NC(=O)[C@H](Cc3ccccc3)NC(=O)/C=C/c3cc(Cl)ccc3-n3cnnn3)nn2c1` [Example 92, (S,E)-methyl 2-(2-(3-(5-chloro-2-(1H-tetrazol-1-yl)phenyl)acrylamido)-3-phenylpropanamido)-[1,2,4]triazolo[1,5-a]pyridine-6-carboxylate] is 53.9 nM. As for `O=C(/C=C/c1cc(Cl)ccc1-n1cnnn1)N[C@@H](Cc1ccccc1)C(=O)Nc1nc2ccc(F)cc2s1` [Example 97, (S,E)-3-(5-chloro-2-(1H-tetrazol-1-yl)phenyl)-N-(1-(6-fluorobenzo[d]thiazol-2-ylamino)-1-oxo-3-phenylpropan-2-yl)acrylamide], the Ki under setting [1] was found to be 533 nM. On the same count and under the same terms, the figure for `O=C(/C=C/c1cc(Cl)ccc1-n1cnnn1)N[C@@H](Cc1ccccc1)C(=O)Nc1ccc(N2CCSCC2)cc1` [Example 99, (S,E)-3-(5-chloro-2-(1H-tetrazol-1-yl)phenyl)-N-(1-oxo-3-phenyl-1-(4-thiomorpholinophenylamino)propan-2-yl)acrylamide, TFA salt] is 1480 nM.

For the molecule `COC(=O)c1ccc(NC(=O)[C@H](Cc2ccccc2)NC(=O)/C=C/c2cc(Cl)ccc2-n2cnnn2)nc1` [Example 103, (S,E)-methyl 6-(2-(3-(5-chloro-2-(1H-tetrazol-1-yl)phenyl)acrylamido)-3-phenylpropanamido)nicotinate, TFA salt], the Ki under setting [1] was found to be 112 nM. On to `COC(=O)Nc1ccc2c(c1)CCN(C(=O)[C@H](Cc1ccccc1)NC(=O)/C=C/c1cc(Cl)ccc1-n1cnnn1)C2` [Example 127, (S,E)-methyl 2-(2-(3-(5-chloro-2-(1H-tetrazol-1-yl)phenyl)acrylamido)-3-phenylpropanoyl)-1,2,3,4-tetrahydroisoquinolin-6-ylcarbamate], for which affinity was put at a Ki of 7800 nM. Consider `O=C(/C=C/c1cc(Cl)ccc1-n1cnnn1)N[C@@H](Cc1ccccc1)C(=O)Nc1ccc2c(c1)C(=O)NC2` [Example 129, (S,E)-3-(5-chloro-2-(1H-tetrazol-1-yl)phenyl)-N-(1-oxo-1-(3-oxoisoindolin-5-ylamino)-3-phenylpropan-2-yl)acrylamide], for which the Ki under setting [1] was 67.9 nM. Take `O=C(/C=C/c1cc(Cl)ccc1-n1cnnn1)N[C@@H](Cc1ccccc1)C(=O)Nc1n[nH]c2ncccc12` [Example 137, (S,E)-N-(1-(1H-pyrazolo[3,4-b]pyridin-3-ylamino)-1-oxo-3-phenylpropan-2-yl)-3-(5-chloro-2-(1H-tetrazol-1-yl)phenyl)acrylamide, TFA salt]: the Ki under setting [1] was 53.9 nM. `O=C(/C=C/c1cc(Cl)ccc1-n1cnnn1)N[C@@H](Cc1ccccc1)C(=O)Nc1cccn2c(C(F)(F)F)nnc12` [Example 142, (S,E)-3-(5-chloro-2-(1H-tetrazol-1-yl)phenyl)-N-(1-oxo-3-phenyl-1-(3-(trifluoromethyl)-[1,2,4]-triazolo[4,3-a]pyridin-8-ylamino)propan-2-yl)acrylamide] yielded an inhibition constant (Ki) of 3850 nM.

With `O=C(N[C@@H](Cc1ccccc1)C(=O)NCCc1cc(Cl)ccc1-n1cnnn1)c1n[nH]c2ccccc12` [Example 149, (S)—N-(1-(5-chloro-2-(1H-tetrazol-1-yl)phenethylamino)-1-oxo-3-phenylpropan-2-yl)-1H-indazole-3-carboxamide], the Ki was 6500 nM. As to `COP(=O)(CCOC(=O)Nc1ccc(NC(=O)[C@H](Cc2ccccc2)NC(=O)/C=C/c2cc(Cl)ccc2-n2cnnn2)cc1)OC` [Example 171, (S,E)-2-(dimethoxyphosphoryl)ethyl 4-(2-(3-(5-chloro-2-(1H-tetrazol-1-yl)phenyl)-acrylamido)-3-phenylpropanamido)phenylcarbamate], under setting [1], the Ki was 38.1 nM. Molecule `O=C1CNC(=O)c2ccc(C(=O)N[C@@H](Cc3ccccc3)C(=O)NCCc3cc(Cl)ccc3-n3cnnn3)cc2N1` [Example 187, (S)—N-(1-(5-chloro-2-(1H-tetrazol-1-yl)phenethylamino)-1-oxo-3-phenylpropan-2-yl)-2,5-dioxo-2,3,4,5-tetrahydro-1H-benzo[e][1,4]diazepine-8-carboxamide] came in with a Ki of 9370 nM.

With `O=C(/C=C/c1cc(Cl)ccc1-n1cnnn1)N[C@@H](Cc1ccccc1)C(=O)N[C@@H]1CCCCNC1=O` [Example 196], the Ki was found to be 8320 nM.

`Nc1nc2ccc(C(=O)N[C@@H](Cc3ccccc3)C(=O)NCCc3cc(Cl)ccc3-n3cnnn3)cc2s1` [Example 204, (S)-2-amino-N-(1-(5-chloro-2-(1H-tetrazol-1-yl)phenethylamino)-1-oxo-3-phenylpropan-2-yl)benzo[d]thiazole-6-carboxamide, TFA salt] registered a Ki of 27.6 nM. The same measure, in the same setting: for `O=C1CSc2cc(C(=O)N[C@@H](Cc3ccccc3)C(=O)NCCc3cc(Cl)ccc3-n3cnnn3)ccc2N1` [Example 206, (S)—N-(1-(5-chloro-2-(1H-tetrazol-1-yl)phenethylamino)-1-oxo-3-phenylpropan-2-yl)-3-oxo-3,4-dihydro-2H-benzo[b][1,4]thiazine-7-carboxamide] the value was 19.5 nM.

The record behind these values is US8367709B2, “Dipeptide analogs as coagulation factor inhibitors” (priority 2007, dated 2013).
